Experimental data reported in patent US10124065B2, “Lipids and lipid compositions for the delivery of active agents” (Novartis AG, priority 2013, dated 2018).

Test system: human leptin
Test: Mouse subcutaneous injection of modified synthetic leptin mRNA, human leptin ELISA
Type: in vivo
Conditions: human leptin in mouse plasma, 10 μg leptin mRNA
Protocol: Prior to subcutaneous injection, mouse body weights were recorded and diet weighted, with mice grouped according to their body weights. The mice were manually restrained and placed on a work surface. Their scruffs were pinched and lifted away from the underlying muscle, the space into which was inserted a 25 gauge needle connected with a 1 ml syringe. The syringe plunger was pulled backwards in such a way as to ensure no fluid was drawn into the syringe, and then the desired volume of leptin mRNA was hand injected with moderate pressure and speed. The needle was then withdrawn and the mice returned to their cages.
8-9 week old, male C57BL/6 mice were used for the in vivo study. FPLC purified modified synthetic leptin mRNA (SEQ ID NO: 5) in which the uridines were substituted with pseudouridine (N:P molar ratio=8:1) packaged in multiple cationic lipid were diluted in injectable saline at a dose of 10 μg per average group body weight.
On day 0, animals were weighed and sorted according to average body weight. ice were dosed at 9 AM and blood was taken at 9 AM on day 0. Blood was also taken at 9 AM on each of days 1 and 2 and assessed for leptin protein levels. Body weight and food intake were also recorded.
Human leptin in mouse plasma was measured by ELISA. Antibodies purchased from the R&D Systems duoset (Cat# DY398E, part#840279 for capture antibody and part#840280 for detection antibody) were reconstituted using PBS and titered, again using PBS. The capture antibody was coated at 4 ug/ml in 30 ul/well on a white Nunc® Maxisorp 384 well plate (Cat#460372). After an overnight incubation at room temperature the capture antibody was aspirated and the plate blocked for 2 hours at room temperature with 90 ul/well of KPL milk blocker (Cat#50-82-00). Once the incubation was completed the plate was aspirated and recombinant standards and samples were added to the plate at 30 ul/well for 2 hours at 37° C. while shaking at 600 rpm. Sample/standard dilutions were made using casein sample diluent. Washing/aspiration 3 times with 100 ul/well followed, using Teknova plate wash solution (Cat# P1192). Next, detection antibody was diluted using casein detection antibody diluent to 12.5 ng/ml and added at 30 ul/well for 2 hours room temperature. After this incubation, the plate was washed again and a solution of poly-streptavidin-HRP (Cat#21140) at a 1:1250 dilution in HRP dilution buffer was added to each well (30 ul/well) and incubated for 30 minutes room temperature. A final wash/aspiration removed the HRP solution and a chemiluminescent substrate was added at 30 ul/well (Cat#1859678 & 1859679). The plate was quickly read using a SpectramaxM5 plate reader with a 50 ms integration time. The dynamic range of the ELISA is from 100-2,000 pg/ml (6.25-125 pM) of human leptin. The assay is applicable to plasma from mice, rats and cynomolgus monkeys.

CCCCC/C=C\C/C=C\CCCCCCCC(=O)OCCCCOc1cc(CN(C)C)cc(OCCCCOC(=O)CCCCCCC/C=C\C/C=C\CCCCC)c1 [Example 38, (9Z,9′Z,12Z,12′Z)-((5-((dimethylamino)methyl)-1,3-phenylene)bis(oxy))bis(butane-4,1-diyl)bis(octadeca-9,12-dienoate)] was tested. Which “Leptin expression SC-C57BI/6, 24 h” value did it give?
The value was 0.99 ng/mL.
